# Test results from publication PMC8371461 (Frontiers in Pharmacology, 2021).
# How the values were obtained:
# FGR = molecular target: T1, FGR (Homo sapiens, UniProt P09769); experiment: kinome scan; type: binding; conditions: 10 µM
# T1 construct: purchased DiscoverX (KINOMEscan)
# PIP5K1A = molecular target: T2, PIP5K1A (Homo sapiens, UniProt Q99755); experiment: kinome scan; type: binding; conditions: 10 µM
# T2 construct: purchased DiscoverX (KINOMEscan)
# [1] = test system: CGR8EF1αS,RLuc-Tα1,FLuc cells; experiment: neural differentiation, Dual Luciferase Reporter Assay (FLuc/RLuc); type: cell-based, mouse; conditions: 72 h, normalized to DMSO
# Protocol: The CGR8 mouse PSC were cultured as described ([Suter et al., 2009]). For neural induction, CGR8 cells were plated in 96-well plates at a density of 10,000 cells/cm^2 on gelatine-coated cell culture plates, in differentiation medium [BHK-21 medium supplemented with 20% foetal calf serum (Thermofisher), L-glutamine 2 mM (Thermofisher), non-essential amino acids (1X, Thermofisher), sodium pyruvate 1 mM (Thermofisher), penicillin/streptomycin 50 U/ml (Thermofisher)]. CGR8EF1αS,RLuc-Tα1,FLuc cells were described in ([Suter et al., 2009]) and were cultured as described above. Luminescence assays were directly performed in 96-well plates with the Dual Luciferase Reporter Assay System (Promega) according to the manufacturer’s instructions. Luminescence was measured with the SpectraMax L Microplate luminometer (Molecular Devices). Cell viability in the wells was measured by the addition of propidium iodide 1 µg/ml in 100 µL of PBS and fluorescence was assessed in each well using a FluoStar Optima reader (Pharmaceutical Technology Group at the University of Geneva).
# The CGR8 PSC line was stably transduced with a dual promoter/reporter gene construct containing a ubiquitous promoter (EF1αS) controlling the expression of Renilla Luciferase (RLuc) and also an early neural-specific promoter (Tα1), controlling the expression of Firefly Luciferase (FLuc). […]
# ERK2 = molecular target: T3, ERK2 (Homo sapiens, UniProt P28482); experiment: kinome scan; type: binding; conditions: 10 µM
# T3 construct: purchased DiscoverX (KINOMEscan)
# ERK8 = molecular target: T4, ERK8 (Homo sapiens, UniProt Q8TD08); experiment: kinome scan; type: binding; conditions: 10 µM
# T4 construct: purchased DiscoverX (KINOMEscan)
# FGFR3 = molecular target: T5, FGFR3 (Homo sapiens, UniProt P22607); experiment: kinome scan; type: binding; conditions: 10 µM
# T5 construct: purchased DiscoverX (KINOMEscan)
# [2] = molecular target: T6, ABL1(M351T)-phosphorylated (Homo sapiens, UniProt P00519, M351T); experiment: kinome scan; type: binding; conditions: 10 µM
# T6 construct: purchased DiscoverX (KINOMEscan)
# CDK11 = molecular target: T7, CDK11 (Homo sapiens, UniProt Q9BWU1); experiment: kinome scan; type: binding; conditions: 10 µM
# T7 construct: purchased DiscoverX (KINOMEscan)
# ROCK1 = molecular target: T8, ROCK1 (Homo sapiens, UniProt Q13464); experiment: kinome scan; type: binding; conditions: 10 µM
# T8 construct: purchased DiscoverX (KINOMEscan)
# PFTK1 = molecular target: T9, PFTK1 (Homo sapiens, UniProt O94921); experiment: kinome scan; type: binding; conditions: 10 µM
# T9 construct: purchased DiscoverX (KINOMEscan)
# PIM1 = molecular target: T10, PIM1 (Homo sapiens, UniProt P11309); experiment: kinome scan; type: binding
# T10 construct: purchased DiscoverX (KINOMEscan)
# ALK = molecular target: T11, ALK (Homo sapiens, UniProt Q9UM73); experiment: kinome scan; type: binding; conditions: 10 µM
# T11 construct: purchased DiscoverX (KINOMEscan)
# PDPK1 = molecular target: T12, PDPK1 (Homo sapiens, UniProt O15530); experiment: kinome scan; type: binding; conditions: 10 µM
# T12 construct: purchased DiscoverX (KINOMEscan)
# [3] = molecular target: T13, RSK4(Kin.Dom.2-C-terminal) (Homo sapiens, UniProt Q9UK32); experiment: kinome scan; type: binding; conditions: 10 µM
# T13 construct: RSK4(Kin.Dom.2-C-terminal); purchased DiscoverX (KINOMEscan)
# DCAMKL2 = molecular target: T14, DCAMKL2 (Homo sapiens, UniProt Q8N568); experiment: kinome scan; type: binding; conditions: 10 µM
# T14 construct: purchased DiscoverX (KINOMEscan)
# MLCK = molecular target: T15, MLCK (Homo sapiens, UniProt Q32MK0); experiment: kinome scan; type: binding; conditions: 10 µM
# T15 construct: purchased DiscoverX (KINOMEscan)
# EPHA4 = molecular target: T16, EPHA4 (Homo sapiens, UniProt P54764); experiment: kinome scan; type: binding; conditions: 10 µM
# T16 construct: purchased DiscoverX (KINOMEscan)
# PIP5K2C = molecular target: T17, PIP5K2C (Homo sapiens, UniProt Q8TBX8); experiment: kinome scan; type: binding
# T17 construct: purchased DiscoverX (KINOMEscan)
# [4] = molecular target: T18, ABL1(T315I)-phosphorylated (Homo sapiens, UniProt P00519, T315I); experiment: kinome scan; type: binding; conditions: 10 µM
# T18 construct: purchased DiscoverX (KINOMEscan)
# EGFR(L861Q) = molecular target: T19, EGFR(L861Q) (Homo sapiens, UniProt P00533, L861Q); experiment: kinome scan; type: binding; conditions: 10 µM
# T19 construct: purchased DiscoverX (KINOMEscan)
# EGFR(T790M) = molecular target: T20, EGFR(T790M) (Homo sapiens, UniProt P00533, T790M); experiment: kinome scan; type: binding; conditions: 10 µM
# T20 construct: purchased DiscoverX (KINOMEscan)
# IKK-epsilon = molecular target: T21, IKK-epsilon (Homo sapiens, UniProt Q14164); experiment: kinome scan; type: binding; conditions: 10 µM
# T21 construct: purchased DiscoverX (KINOMEscan)
# ANKK1 = molecular target: T22, ANKK1 (Homo sapiens, UniProt Q8NFD2); experiment: Kd select analysis (DiscoverX); type: binding
# T22 construct: purchased DiscoverX (KINOMEscan)
# T22 sequence (Q8NFD2 1-765): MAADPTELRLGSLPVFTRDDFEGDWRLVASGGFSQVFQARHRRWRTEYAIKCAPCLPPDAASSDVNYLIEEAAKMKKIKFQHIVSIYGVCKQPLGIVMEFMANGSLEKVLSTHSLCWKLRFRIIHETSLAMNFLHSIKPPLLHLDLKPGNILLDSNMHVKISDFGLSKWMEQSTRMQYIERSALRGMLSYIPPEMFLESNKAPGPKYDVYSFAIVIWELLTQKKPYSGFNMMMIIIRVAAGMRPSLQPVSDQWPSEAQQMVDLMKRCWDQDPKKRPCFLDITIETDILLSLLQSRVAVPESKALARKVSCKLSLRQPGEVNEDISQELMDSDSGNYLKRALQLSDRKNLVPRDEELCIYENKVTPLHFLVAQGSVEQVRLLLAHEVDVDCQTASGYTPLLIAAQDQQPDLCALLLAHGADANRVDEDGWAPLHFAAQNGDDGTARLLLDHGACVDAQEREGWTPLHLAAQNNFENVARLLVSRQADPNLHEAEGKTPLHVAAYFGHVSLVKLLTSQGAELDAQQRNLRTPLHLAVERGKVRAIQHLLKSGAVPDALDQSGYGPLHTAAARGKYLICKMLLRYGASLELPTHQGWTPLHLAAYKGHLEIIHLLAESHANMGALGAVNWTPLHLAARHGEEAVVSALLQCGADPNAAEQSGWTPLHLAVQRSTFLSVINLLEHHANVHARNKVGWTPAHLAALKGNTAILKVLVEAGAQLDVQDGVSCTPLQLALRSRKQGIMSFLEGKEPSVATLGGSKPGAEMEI
# Protocol: Hits are identified by an ultra-sensitive quantitative PCR detecting the specific DNA tag linked to each kinase (Supplementary Figure S2). The drug is used at a concentration of 10 µM and results are expressed as the percentage of signal (kinase PCR detection) with respect to DMSO control conditions. Thirteen hits were identified, with a signal reduction ranging from 0 to 27% (Table 3). Full raw data are presented in Supplementary Table S4. Interactions between 0 and 20% of reduction were considered to be the most significant ones. […] A sub-micromolar affinity (Kd<1 µM) was only seen with two PIKs (PIP4K2C, PI4KB) and GAK (Table 4). Inhibitions curves from these compounds are shown in Supplementary Figure S3.
# [5] = molecular target: T23, ABL1(H396P)-phosphorylated (Homo sapiens, UniProt P00519, H396P); experiment: kinome scan; type: binding; conditions: 10 µM
# T23 construct: purchased DiscoverX (KINOMEscan)
# [6] = test system: Hemoglobin beta chain splicing at IVS2 705 locus; parameters: method as in CHEMBL1614204; conditions: reported activity, data mining; ref CHEMBL1614204; cited from earlier work
# LIMK2 = molecular target: T24, LIMK2 (Homo sapiens, UniProt P53671); experiment: kinome scan; type: binding; conditions: 10 µM
# T24 construct: purchased DiscoverX (KINOMEscan)
# T10 sequence (P11309 whole entry): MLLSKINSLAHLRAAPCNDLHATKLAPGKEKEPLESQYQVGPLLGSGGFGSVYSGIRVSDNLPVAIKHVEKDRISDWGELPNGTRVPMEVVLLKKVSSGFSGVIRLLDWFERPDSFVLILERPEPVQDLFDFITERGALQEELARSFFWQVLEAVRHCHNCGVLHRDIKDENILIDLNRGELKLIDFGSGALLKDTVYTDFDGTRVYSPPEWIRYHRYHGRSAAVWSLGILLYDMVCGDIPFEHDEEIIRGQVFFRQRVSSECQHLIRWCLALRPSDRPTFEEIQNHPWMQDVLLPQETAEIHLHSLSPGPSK
# T17 sequence (Q8TBX8 whole entry): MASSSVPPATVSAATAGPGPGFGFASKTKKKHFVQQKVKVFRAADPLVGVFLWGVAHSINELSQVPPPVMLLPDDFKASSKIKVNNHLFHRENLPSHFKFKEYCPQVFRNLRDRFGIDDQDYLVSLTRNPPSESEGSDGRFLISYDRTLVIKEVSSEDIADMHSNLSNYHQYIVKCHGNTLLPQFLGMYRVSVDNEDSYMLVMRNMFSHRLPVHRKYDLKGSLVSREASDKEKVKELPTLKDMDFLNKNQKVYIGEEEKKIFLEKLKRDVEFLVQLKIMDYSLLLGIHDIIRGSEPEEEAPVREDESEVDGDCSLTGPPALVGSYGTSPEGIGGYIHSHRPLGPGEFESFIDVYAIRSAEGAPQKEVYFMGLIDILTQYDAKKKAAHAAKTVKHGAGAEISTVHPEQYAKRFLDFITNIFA
# T11 sequence (Q9UM73 19-1620): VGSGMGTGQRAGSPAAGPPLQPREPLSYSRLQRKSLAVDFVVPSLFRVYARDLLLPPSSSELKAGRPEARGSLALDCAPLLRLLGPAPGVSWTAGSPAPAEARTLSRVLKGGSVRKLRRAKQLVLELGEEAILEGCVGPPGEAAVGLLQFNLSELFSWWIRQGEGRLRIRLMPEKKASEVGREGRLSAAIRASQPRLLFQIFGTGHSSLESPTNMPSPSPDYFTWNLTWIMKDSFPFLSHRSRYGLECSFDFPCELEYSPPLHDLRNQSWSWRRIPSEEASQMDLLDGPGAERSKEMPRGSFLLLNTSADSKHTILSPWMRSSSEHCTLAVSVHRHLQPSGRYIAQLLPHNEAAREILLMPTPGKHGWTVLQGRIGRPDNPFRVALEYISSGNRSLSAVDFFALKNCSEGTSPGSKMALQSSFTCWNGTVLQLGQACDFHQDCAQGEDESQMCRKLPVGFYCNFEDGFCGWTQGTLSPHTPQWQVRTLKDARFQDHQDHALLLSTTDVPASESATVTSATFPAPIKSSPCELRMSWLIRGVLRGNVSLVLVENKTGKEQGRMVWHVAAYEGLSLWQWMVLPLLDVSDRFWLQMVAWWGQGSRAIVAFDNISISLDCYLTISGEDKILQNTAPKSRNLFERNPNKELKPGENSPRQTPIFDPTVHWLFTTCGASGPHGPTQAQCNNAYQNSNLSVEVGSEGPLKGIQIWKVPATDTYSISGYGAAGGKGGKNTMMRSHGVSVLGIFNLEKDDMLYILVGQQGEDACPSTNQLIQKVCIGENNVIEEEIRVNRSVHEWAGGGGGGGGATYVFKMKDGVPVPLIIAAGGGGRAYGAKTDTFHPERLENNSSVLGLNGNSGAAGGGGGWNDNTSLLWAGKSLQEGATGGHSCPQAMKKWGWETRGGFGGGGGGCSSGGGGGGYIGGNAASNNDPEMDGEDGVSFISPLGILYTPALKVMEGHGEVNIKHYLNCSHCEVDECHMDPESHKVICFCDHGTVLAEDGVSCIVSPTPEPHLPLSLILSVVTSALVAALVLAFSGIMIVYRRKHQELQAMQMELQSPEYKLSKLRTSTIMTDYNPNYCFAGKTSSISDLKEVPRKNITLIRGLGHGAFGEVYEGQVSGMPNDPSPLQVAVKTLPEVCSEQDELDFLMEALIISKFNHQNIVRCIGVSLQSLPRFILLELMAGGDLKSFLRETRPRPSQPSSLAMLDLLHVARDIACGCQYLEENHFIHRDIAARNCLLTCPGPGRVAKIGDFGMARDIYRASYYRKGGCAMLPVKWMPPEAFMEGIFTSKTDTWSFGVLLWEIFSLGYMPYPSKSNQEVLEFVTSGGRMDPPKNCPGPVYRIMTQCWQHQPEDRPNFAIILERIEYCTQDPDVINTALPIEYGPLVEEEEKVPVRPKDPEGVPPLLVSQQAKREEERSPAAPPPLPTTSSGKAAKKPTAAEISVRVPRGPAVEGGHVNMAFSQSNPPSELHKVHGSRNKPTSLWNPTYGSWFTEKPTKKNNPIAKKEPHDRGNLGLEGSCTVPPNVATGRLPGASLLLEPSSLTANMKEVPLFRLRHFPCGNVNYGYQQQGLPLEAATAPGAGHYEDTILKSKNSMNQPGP
# T21 sequence (Q14164 whole entry): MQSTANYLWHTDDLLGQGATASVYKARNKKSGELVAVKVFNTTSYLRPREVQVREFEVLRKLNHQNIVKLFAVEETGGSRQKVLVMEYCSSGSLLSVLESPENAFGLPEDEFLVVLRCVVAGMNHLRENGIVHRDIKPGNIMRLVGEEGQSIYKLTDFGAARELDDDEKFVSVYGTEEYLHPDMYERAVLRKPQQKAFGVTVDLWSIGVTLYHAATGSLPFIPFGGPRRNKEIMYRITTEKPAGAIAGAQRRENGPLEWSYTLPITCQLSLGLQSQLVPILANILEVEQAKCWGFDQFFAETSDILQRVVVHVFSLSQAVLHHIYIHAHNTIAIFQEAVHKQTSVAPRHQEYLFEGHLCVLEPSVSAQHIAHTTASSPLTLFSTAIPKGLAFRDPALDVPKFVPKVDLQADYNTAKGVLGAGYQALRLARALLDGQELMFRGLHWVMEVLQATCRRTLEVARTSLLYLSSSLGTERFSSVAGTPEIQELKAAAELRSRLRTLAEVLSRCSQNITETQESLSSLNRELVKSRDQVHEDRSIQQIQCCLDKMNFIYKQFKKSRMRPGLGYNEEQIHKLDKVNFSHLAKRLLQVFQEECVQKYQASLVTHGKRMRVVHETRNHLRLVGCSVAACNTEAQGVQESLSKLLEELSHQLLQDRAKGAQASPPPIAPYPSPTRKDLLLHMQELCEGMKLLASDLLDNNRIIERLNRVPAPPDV
# T12 sequence (O15530 whole entry): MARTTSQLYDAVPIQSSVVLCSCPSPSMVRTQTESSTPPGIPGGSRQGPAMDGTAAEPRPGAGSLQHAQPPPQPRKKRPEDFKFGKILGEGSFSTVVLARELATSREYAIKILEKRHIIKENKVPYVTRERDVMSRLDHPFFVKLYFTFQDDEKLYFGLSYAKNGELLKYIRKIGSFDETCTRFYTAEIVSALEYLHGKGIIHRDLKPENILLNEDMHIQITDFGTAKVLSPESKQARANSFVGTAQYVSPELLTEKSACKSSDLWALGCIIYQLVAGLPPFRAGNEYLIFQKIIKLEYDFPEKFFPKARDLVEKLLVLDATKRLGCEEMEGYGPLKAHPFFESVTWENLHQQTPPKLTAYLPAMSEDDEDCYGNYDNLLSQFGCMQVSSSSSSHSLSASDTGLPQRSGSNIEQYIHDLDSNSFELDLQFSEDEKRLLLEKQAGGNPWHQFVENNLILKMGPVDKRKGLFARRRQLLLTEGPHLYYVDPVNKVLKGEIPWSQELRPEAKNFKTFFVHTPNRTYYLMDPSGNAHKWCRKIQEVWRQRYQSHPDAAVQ
# T8 sequence (Q13464 whole entry): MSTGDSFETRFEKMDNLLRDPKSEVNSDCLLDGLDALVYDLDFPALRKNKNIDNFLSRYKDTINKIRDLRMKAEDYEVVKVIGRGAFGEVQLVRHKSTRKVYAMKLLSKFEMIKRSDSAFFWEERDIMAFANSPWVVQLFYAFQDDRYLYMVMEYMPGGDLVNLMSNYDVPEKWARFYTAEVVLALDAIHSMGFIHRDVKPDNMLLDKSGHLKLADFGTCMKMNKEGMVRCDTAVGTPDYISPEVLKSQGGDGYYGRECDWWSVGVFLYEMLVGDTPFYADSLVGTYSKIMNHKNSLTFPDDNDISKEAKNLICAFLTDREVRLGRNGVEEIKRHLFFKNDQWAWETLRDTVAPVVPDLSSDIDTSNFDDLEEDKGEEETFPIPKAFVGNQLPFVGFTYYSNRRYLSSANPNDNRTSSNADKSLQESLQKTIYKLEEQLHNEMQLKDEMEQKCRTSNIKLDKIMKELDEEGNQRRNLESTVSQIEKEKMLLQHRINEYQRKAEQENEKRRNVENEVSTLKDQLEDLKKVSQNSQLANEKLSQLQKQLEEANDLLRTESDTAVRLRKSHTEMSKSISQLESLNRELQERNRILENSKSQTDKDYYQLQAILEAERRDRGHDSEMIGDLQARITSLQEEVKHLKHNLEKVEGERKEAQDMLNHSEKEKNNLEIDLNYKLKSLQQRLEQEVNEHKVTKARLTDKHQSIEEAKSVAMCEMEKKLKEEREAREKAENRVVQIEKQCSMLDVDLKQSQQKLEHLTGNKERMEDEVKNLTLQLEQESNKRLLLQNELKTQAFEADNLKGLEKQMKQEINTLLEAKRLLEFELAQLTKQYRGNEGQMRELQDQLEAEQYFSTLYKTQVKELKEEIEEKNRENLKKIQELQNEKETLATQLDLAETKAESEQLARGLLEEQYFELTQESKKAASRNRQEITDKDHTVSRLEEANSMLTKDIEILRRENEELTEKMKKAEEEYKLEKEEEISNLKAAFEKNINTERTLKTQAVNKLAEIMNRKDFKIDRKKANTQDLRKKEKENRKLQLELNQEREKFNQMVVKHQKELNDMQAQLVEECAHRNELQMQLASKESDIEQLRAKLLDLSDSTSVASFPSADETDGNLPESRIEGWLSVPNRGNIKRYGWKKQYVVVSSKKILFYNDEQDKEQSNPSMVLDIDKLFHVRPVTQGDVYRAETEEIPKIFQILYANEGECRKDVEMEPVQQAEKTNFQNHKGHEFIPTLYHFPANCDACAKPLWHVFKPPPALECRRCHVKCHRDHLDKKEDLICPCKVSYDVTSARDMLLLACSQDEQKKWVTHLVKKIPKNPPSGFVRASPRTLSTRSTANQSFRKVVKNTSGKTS
smiles,measurement,setting,value
"Nc1ccc(N=Nc2ccccc2)c(N)n1 [phenazopyridine, 2,6-diamino-3-(phenylazo)pyridine]",remaining binding (% of control),FGR,87
same,kinase inhibition,PIP5K1A,56
same,concentration at which an increase of the FLuc signal was observed,[1],1 µM
same,concentration of maximal FLuc signal,[1],10 µM
same,kinase inhibition,ERK2,92
same,kinase inhibition,ERK8,100
same,kinase inhibition,FGFR3,91
same,kinase inhibition,[2],85
same,kinase inhibition,CDK11,90
same,kinase inhibition,ROCK1,78
same,kinase inhibition,PFTK1,100
same,remaining binding (% of control),PIM1; 10 µM,100
same,remaining binding at 10 µM,PIM1; read-out: Kinome scan (% of control at 10 µM),100%
same,kinase inhibition,ALK,89
same,kinase inhibition,PDPK1,100
same,kinase inhibition,[3],81
same,kinase inhibition,DCAMKL2,89
same,kinase inhibition,MLCK,96
same,kinase inhibition,EPHA4,86
same,remaining binding (% of control),PIP5K2C; 10 µM,2.3
same,remaining binding at 10 µM,PIP5K2C; read-out: % Of control,2.3%
same,kinase inhibition,[4],100
same,kinase inhibition,EGFR(L861Q),95
same,kinase inhibition,EGFR(T790M),100
same,kinase inhibition,IKK-epsilon,72
same,Kd,ANKK1,21 µM
same,kinase inhibition,[5],77
same,Concentration,[6],20 µM
same,kinase inhibition,LIMK2,96
